# From paper PMC6211257, “Synthesis and cytotoxic activities of novel copper and silver complexes of 1,3-diaryltriazene-substituted sulfonamides” (Journal of Enzyme Inhibition and Medicinal Chemistry, 2018)
# Test system: normal prostate epithelium (PNT-1A) cells
# Experiment: MTT cytotoxicity assay, PNT-1A
# Type: cell-based, human
# Settings: Homo sapiens, PNT1A, 48 h, unit given as M, read-out: IC50 normal prostate cells (PNT1-A)
# Source text: (§1) The cells studied were obtained from the American Type Culture Collection (ATCC, Manassas, VA), and included human colorectal adenocarcinoma (DLD-1), cervix carcinoma (HeLa), breast adenocarcinoma (MDA-MB-231), colon adenocarcinoma (HT-29), endometrial adenocarcinoma (ECC-1), prostate cancer (DU-145 and PC-3), normal embryonic kidney (HEK-293), normal prostate epithelium (PNT-1A), and normal retinal pigment epithelium (ARPE-19) cells. As recommended by ATCC, cells were subjected to propagation using DMEM-F12 and RPMI-1640 media, with supplements 10% fetal bovine serum, L-glutamine (2 mM), penicillin (100 U/mL) and streptomycin ([…]) in a humidified atmosphere (5% CO2) at 37 °C. When the cultures reached 70–80% confluence, the cells were harvested using 0.25% trypsin (Sigma).
# (§2) Cytotoxic activities were based on the reduction of (3–(4,5-dimethylthiazol-2-yl)-2,5-diphenyltetrazolium bromide) (MTT) by mitochondrial dehydrogenase of viable cells to give a blue formazan product which can be measured spectrophotometrically by UV–Vis measurements. MTT colorimetric assays were performed using 96 well plates. The cells were seeded in a 96 well plate at concentration 5.0 × 10^4 cells/well and incubated at 37 °C for 24 h. After treatment with various concentrations of the test compound (1, 5, 10, 25, 50, 100 and 200 μM), the cells were incubated for an additional 48 h at 37 °C. After incubation, the medium was removed, and the cells in each well were incubated with 100 μL MTT solution (5 mg/mL) for 4 h at 37 °C. MTT solutions were then discarded, and 100 μL DMSO were added to dissolve insoluble formazan crystals. Optical densities were measured at 570 nm (Varioskan Flash Multimode Reader, Thermo, Waltham, MA). Data were obtained from triplicate wells. Cytotoxic effects were determined in reference to negative controls (vehicle treated cells). Cytotoxicity was expressed as the mean percentage increase relative to the unexposed control (mean ± SD). All statistical analyses were performed using SPSS package program for Windows (Version 20, Chicago, IL). Control values were set to 0% cytotoxicity. Cytotoxicity data, where appropriate, were fitted to sigmoidal curves and a four-parameter logistic model was used to calculate the IC50 values, the concentration of material causing 50% inhibition, compared to the untreated controls. 5-Fluorouracil (5-FU) was also used as a control agent[21]^,[22].
row,Structure (SMILES),IC50 [µM]
1,"NS(=O)(=O)c1cccc(N/N=N/c2ccc(F)cc2)c1 [Compound L1, 3–(3-(4-fluorophenyl)triaz-1-en-1-yl) benzenesulfonamide]",195

# Same assay, conditions: Homo sapiens, PNT1A, normal cell, 48 h, means of three independent experiments, read-out: IC50 PNT-1A
row,Structure (SMILES),IC50 [µM]
1,"NS(=O)(=O)c1cccc(N/N=N/c2ccc(C(=O)O)cc2)c1 [Compound L3, 4–(3–(3-sulfamoylphenyl)triaz-2-en-1-yl) benzoic acide]",> 300
2,"COc1ccc(/N=N/Nc2cccc(S(N)(=O)=O)c2)cc1 [Compound L2, 3–(3-(4-methoxyphenyl)triaz-1-en-1-yl)]",> 300
3,"Cc1cc(C)cc(NN=Nc2cccc(S(N)(=O)=O)c2)c1 [Compound L5, 3-(3-(3,5-dimethylphenyl)triaz-1-en-1-yl)benzenesulfonamide]",177 ± 20.5
4,"NS(=O)(=O)c1cccc(N/N=N/c2ccc(F)cc2)c1 [Compound L1, 3–(3-(4-fluorophenyl)triaz-1-en-1-yl) benzenesulfonamide]",195 ± 23.5

# Test system: colon adenocarcinoma (HT-29) cells
# Experiment: MTT cytotoxicity assay, HT-29
# Type: cell-based, human
# Settings: Homo sapiens, HT-29, cancer cell, 48 h, means of three independent experiments
# Source text: as §1, §2
row,Structure (SMILES),IC50 [µM]
1,"NS(=O)(=O)c1cccc(N/N=N/c2ccc(C(=O)O)cc2)c1 [Compound L3, 4–(3–(3-sulfamoylphenyl)triaz-2-en-1-yl) benzoic acide]",> 300
2,"COc1ccc(/N=N/Nc2cccc(S(N)(=O)=O)c2)cc1 [Compound L2, 3–(3-(4-methoxyphenyl)triaz-1-en-1-yl)]",265 ± 30
3,"Cc1cc(C)cc(NN=Nc2cccc(S(N)(=O)=O)c2)c1 [Compound L5, 3-(3-(3,5-dimethylphenyl)triaz-1-en-1-yl)benzenesulfonamide]",112 ± 16.5
4,"NS(=O)(=O)c1cccc(N/N=N/c2ccc(F)cc2)c1 [Compound L1, 3–(3-(4-fluorophenyl)triaz-1-en-1-yl) benzenesulfonamide]",79.4 ± 15.4

# Test system: prostate cancer (DU-145) cells
# Experiment: MTT cytotoxicity assay, DU-145
# Type: cell-based, human
# Settings: Homo sapiens, DU-145; MTT, 48 h; unit given as M; read-out: IC50 prostate cancer (DU-145)
# Source text: as §1, §2
row,Structure (SMILES),IC50 [µM]
1,"NS(=O)(=O)c1cccc(N/N=N/c2ccc(F)cc2)c1 [Compound L1, 3–(3-(4-fluorophenyl)triaz-1-en-1-yl) benzenesulfonamide]",29

# Same assay, conditions: Homo sapiens, DU-145; cancer cell, MTT, 48 h, means of three independent experiments; read-out: IC50 DU-145
row,Structure (SMILES),IC50 [µM]
1,"NS(=O)(=O)c1cccc(N/N=N/c2ccc(C(=O)O)cc2)c1 [Compound L3, 4–(3–(3-sulfamoylphenyl)triaz-2-en-1-yl) benzoic acide]",186 ± 20.6
2,"COc1ccc(/N=N/Nc2cccc(S(N)(=O)=O)c2)cc1 [Compound L2, 3–(3-(4-methoxyphenyl)triaz-1-en-1-yl)]",154 ± 25.6
3,"Cc1cc(C)cc(NN=Nc2cccc(S(N)(=O)=O)c2)c1 [Compound L5, 3-(3-(3,5-dimethylphenyl)triaz-1-en-1-yl)benzenesulfonamide]",97.8 ± 9.7
4,"NS(=O)(=O)c1cccc(N/N=N/c2ccc(F)cc2)c1 [Compound L1, 3–(3-(4-fluorophenyl)triaz-1-en-1-yl) benzenesulfonamide]",29 ± 2.9

# Same assay, conditions: from IC50 values DU-145 vs PNT1-A
row,Structure (SMILES),selectivity between prostate cancer cell line (DU-145) and normal prostate cells (PNT1-A)
1,"NS(=O)(=O)c1cccc(N/N=N/c2ccc(F)cc2)c1 [Compound L1, 3–(3-(4-fluorophenyl)triaz-1-en-1-yl) benzenesulfonamide]",high selectivity

# Test system: endometrial adenocarcinoma (ECC-1) cells
# Experiment: MTT cytotoxicity assay, ECC-1
# Type: cell-based, human
# Settings: Homo sapiens, ECC-1, cancer cell, 48 h, means of three independent experiments
# Source text: as §1, §2
row,Structure (SMILES),IC50 [µM]
1,"NS(=O)(=O)c1cccc(N/N=N/c2ccc(C(=O)O)cc2)c1 [Compound L3, 4–(3–(3-sulfamoylphenyl)triaz-2-en-1-yl) benzoic acide]",197 ± 23.5
2,"COc1ccc(/N=N/Nc2cccc(S(N)(=O)=O)c2)cc1 [Compound L2, 3–(3-(4-methoxyphenyl)triaz-1-en-1-yl)]",> 300
3,"Cc1cc(C)cc(NN=Nc2cccc(S(N)(=O)=O)c2)c1 [Compound L5, 3-(3-(3,5-dimethylphenyl)triaz-1-en-1-yl)benzenesulfonamide]",132 ± 13.1
4,"NS(=O)(=O)c1cccc(N/N=N/c2ccc(F)cc2)c1 [Compound L1, 3–(3-(4-fluorophenyl)triaz-1-en-1-yl) benzenesulfonamide]",239 ± 27.5

# Test system: human colorectal adenocarcinoma (DLD-1) cells
# Experiment: MTT cytotoxicity assay, DLD-1
# Type: cell-based
# Settings: Homo sapiens, DLD-1, cancer cell, 48 h, means of three independent experiments
# Source text: as §1, §2
row,Structure (SMILES),IC50 [µM]
1,"NS(=O)(=O)c1cccc(N/N=N/c2ccc(C(=O)O)cc2)c1 [Compound L3, 4–(3–(3-sulfamoylphenyl)triaz-2-en-1-yl) benzoic acide]",> 300
2,"COc1ccc(/N=N/Nc2cccc(S(N)(=O)=O)c2)cc1 [Compound L2, 3–(3-(4-methoxyphenyl)triaz-1-en-1-yl)]",223 ± 8.3
3,"Cc1cc(C)cc(NN=Nc2cccc(S(N)(=O)=O)c2)c1 [Compound L5, 3-(3-(3,5-dimethylphenyl)triaz-1-en-1-yl)benzenesulfonamide]",224 ± 12.4
4,"NS(=O)(=O)c1cccc(N/N=N/c2ccc(F)cc2)c1 [Compound L1, 3–(3-(4-fluorophenyl)triaz-1-en-1-yl) benzenesulfonamide]",140 ± 11

# Test system: prostate cancer (PC-3) cells
# Experiment: MTT cytotoxicity assay, PC-3
# Type: cell-based, human
# Settings: Homo sapiens, PC-3, cancer cell, 48 h, means of three independent experiments
# Source text: as §1, §2
row,Structure (SMILES),IC50 [µM]
1,"NS(=O)(=O)c1cccc(N/N=N/c2ccc(C(=O)O)cc2)c1 [Compound L3, 4–(3–(3-sulfamoylphenyl)triaz-2-en-1-yl) benzoic acide]",> 300
2,"COc1ccc(/N=N/Nc2cccc(S(N)(=O)=O)c2)cc1 [Compound L2, 3–(3-(4-methoxyphenyl)triaz-1-en-1-yl)]",171 ± 20.5
3,"Cc1cc(C)cc(NN=Nc2cccc(S(N)(=O)=O)c2)c1 [Compound L5, 3-(3-(3,5-dimethylphenyl)triaz-1-en-1-yl)benzenesulfonamide]",131 ± 12.4
4,"NS(=O)(=O)c1cccc(N/N=N/c2ccc(F)cc2)c1 [Compound L1, 3–(3-(4-fluorophenyl)triaz-1-en-1-yl) benzenesulfonamide]",168 ± 18.5

# Test system: normal embryonic kidney (HEK-293) cells
# Experiment: MTT cytotoxicity assay, HEK-293
# Type: cell-based, human
# Settings: Homo sapiens, HEK293, normal cell, 48 h, means of three independent experiments
# Source text: as §1, §2
row,Structure (SMILES),IC50 [µM]
1,"NS(=O)(=O)c1cccc(N/N=N/c2ccc(C(=O)O)cc2)c1 [Compound L3, 4–(3–(3-sulfamoylphenyl)triaz-2-en-1-yl) benzoic acide]",> 300
2,"COc1ccc(/N=N/Nc2cccc(S(N)(=O)=O)c2)cc1 [Compound L2, 3–(3-(4-methoxyphenyl)triaz-1-en-1-yl)]",146 ± 13.4
3,"Cc1cc(C)cc(NN=Nc2cccc(S(N)(=O)=O)c2)c1 [Compound L5, 3-(3-(3,5-dimethylphenyl)triaz-1-en-1-yl)benzenesulfonamide]",103 ± 10.2
4,"NS(=O)(=O)c1cccc(N/N=N/c2ccc(F)cc2)c1 [Compound L1, 3–(3-(4-fluorophenyl)triaz-1-en-1-yl) benzenesulfonamide]",132 ± 16.4

# Test system: cervix carcinoma (HeLa) cells
# Experiment: MTT cytotoxicity assay, HeLa
# Type: cell-based, human
# Settings: Homo sapiens, HeLa, 48 h, cancer cell, MTT, means of three independent experiments
# Source text: as §1, §2
row,Structure (SMILES),IC50 [µM]
1,"NS(=O)(=O)c1cccc(N/N=N/c2ccc(C(=O)O)cc2)c1 [Compound L3, 4–(3–(3-sulfamoylphenyl)triaz-2-en-1-yl) benzoic acide]",> 300
2,"COc1ccc(/N=N/Nc2cccc(S(N)(=O)=O)c2)cc1 [Compound L2, 3–(3-(4-methoxyphenyl)triaz-1-en-1-yl)]",768 ± 6.5
3,"Cc1cc(C)cc(NN=Nc2cccc(S(N)(=O)=O)c2)c1 [Compound L5, 3-(3-(3,5-dimethylphenyl)triaz-1-en-1-yl)benzenesulfonamide]",65.1 ± 4.5
4,"NS(=O)(=O)c1cccc(N/N=N/c2ccc(F)cc2)c1 [Compound L1, 3–(3-(4-fluorophenyl)triaz-1-en-1-yl) benzenesulfonamide]",179 ± 16

# Test system: breast adenocarcinoma (MDA-MB-231) cells
# Experiment: MTT cytotoxicity assay, MDA-MB-231
# Type: cell-based, human
# Settings: Homo sapiens, MDA-MB-231, cancer cell, 48 h, means of three independent experiments
# Source text: as §1, §2
row,Structure (SMILES),IC50 [µM]
1,"NS(=O)(=O)c1cccc(N/N=N/c2ccc(C(=O)O)cc2)c1 [Compound L3, 4–(3–(3-sulfamoylphenyl)triaz-2-en-1-yl) benzoic acide]",> 300
2,"COc1ccc(/N=N/Nc2cccc(S(N)(=O)=O)c2)cc1 [Compound L2, 3–(3-(4-methoxyphenyl)triaz-1-en-1-yl)]",144 ± 2.4
3,"Cc1cc(C)cc(NN=Nc2cccc(S(N)(=O)=O)c2)c1 [Compound L5, 3-(3-(3,5-dimethylphenyl)triaz-1-en-1-yl)benzenesulfonamide]",144 ± 18.6
4,"NS(=O)(=O)c1cccc(N/N=N/c2ccc(F)cc2)c1 [Compound L1, 3–(3-(4-fluorophenyl)triaz-1-en-1-yl) benzenesulfonamide]",104 ± 28.2

# Test system: normal retinal pigment epithelium (ARPE-19) cells
# Experiment: MTT cytotoxicity assay, ARPE-19
# Type: cell-based, human
# Settings: Homo sapiens, ARPE-19, normal cell, 48 h, means of three independent experiments
# Source text: as §1, §2
row,Structure (SMILES),IC50 [µM]
1,"NS(=O)(=O)c1cccc(N/N=N/c2ccc(C(=O)O)cc2)c1 [Compound L3, 4–(3–(3-sulfamoylphenyl)triaz-2-en-1-yl) benzoic acide]",> 300
2,"COc1ccc(/N=N/Nc2cccc(S(N)(=O)=O)c2)cc1 [Compound L2, 3–(3-(4-methoxyphenyl)triaz-1-en-1-yl)]",> 300
3,"Cc1cc(C)cc(NN=Nc2cccc(S(N)(=O)=O)c2)c1 [Compound L5, 3-(3-(3,5-dimethylphenyl)triaz-1-en-1-yl)benzenesulfonamide]",> 300
4,"NS(=O)(=O)c1cccc(N/N=N/c2ccc(F)cc2)c1 [Compound L1, 3–(3-(4-fluorophenyl)triaz-1-en-1-yl) benzenesulfonamide]",279 ± 33.8
